Measurements reported in patent US20190231761A1, “COMPOSITIONS AND METHODS FOR TARGETING FRUCTOSE ENZYMES AND TRANSPORTERS FOR THE TREATMENT OF CANCER” (Duke University, priority 2018, published 2019).

Columns and labels:
LV-HCT116 cells = assay: intravenous injection of liver-derived HCT116 (LV-HCT116), tumors in the liver; format: in vivo, NOD/SCID mice; settings: 5-Fluorouracil 100 mg/kg, Oxaliplatin 6 mg/kg, intraperitoneal twice a week; compared with ALDOB knockdown or fructose-restricted diet
From the text: FIG. 41A is representative IVIS luciferase in vivo images of mice with intravenous injection of liver-derived HCT116 cells with or without ALDOB knockdown. FIG. 41B are bright field and fluorescent (mCherry) images of livers of mice with intravenous injection of liver-derived HCT116 cells with or without ALDOB knockdown. FIG. 41C is a graph showing quantification of liver metastasis of mice with intravenous injection of liver-derived HCT116 cells with or without ALDOB knockdown, and show knockdown of ALDOB suppressed CRC liver lesions. FIG. 41D are representative IVIS luciferase in vivo images of mice with intravenous injection of liver-derived HCT116 with fructose diet. FIG. 41E are bright field and fluorescent (mCherry) images of livers of mice with intravenous injection of liver-derived HCT116 with fructose diet. FIG. 41F is a graph of quantification of liver metastasis of mice with intravenous injection of liver-derived HCT116 with fructose diet that show mice fed with fructose-restricted diet suppressed liver lesions. […] FIG. 41I is a graph showing quantification of liver lesions. […] Error bars denote SEM of 3 mice per group. **, p<0.01; ***, p<0.001. p-value was calculated based on one-way ANOVA. […]

CRC cells = assay: KHK knockdown in CRC cells transplanted into mouse cecum, liver metastasis; format: in vivo; settings: IVIS luciferase images, quantification of liver metastasis
Protocol: FIG. 42A-42B illustrates KHK knockdown suppresses liver metastasis. FIG. 42A is a Western blot showing KHK knockdown efficiency. FIG. 42B are representative IVIS luciferase in vivo images, bright field and fluorescent images of livers, and quantification of liver metastasis. Error bars denote SEM of 5 mice per group. p-values were calculated based on one-way ANOVA. ***, p<0.001.
To determine if silencing ketohexokinase (KHK) can suppress liver metastases, KHK was knocked down using shRNA nucleic acid sequence SEQ ID NO:4 (FIG. 42A) in CRC cells and the cells were transplanted into the mouse cecum using the methods described in Example 6 with respect to ALDOB knockdown.

CRC119 cells = assay: cecum injection model, CRC liver metastasis, CRC119 cells with ALDOB knockdown; format: in vivo, NOD/SCID mice; settings: cecum-injected CRC119 cells with ALDOB knockdown; control vectors 5 out of 5 mice
Protocol: (§1) Tumor-bearing mice were treated with 5-Fluorouracil (Sigma, St. Louis, Mo.) at a dose of 100 mg/kg, Oxaliplatin (Sigma, St. Louis, Mo.) at a dose of 6 mg/kg, 2-deoxyglucose (Sigma, St. Louis, Mo.) at a dose of 500 mg/kg or normal saline as vehicle control through intraperitoneal route twice a week. 2×10^6 cells carrying a luciferase/mCherry or luciferase/GFP vector were injected into the mice for cecum injection model and intrahepatic injection model. 5×10^5 cells were injected for intravenous injection. Luciferase signal was tracked in vivo using the IVIS luciferase imaging system 200 (Xenogen) for tumor development. Liver metastases were evaluated based on mCherry signals by an OV100 microscope (Olympus) after scarifying the mice.
(§2) To assess the contribution of ALDOB to fructose metabolism, ALDOB was knocked down in CRC cells using two shRNAs and validated the knockdown efficiencies by Western blot (FIG. 23). ALDOB lentiviral shRNA constructs were purchased from Sigma Mission shRNA dataset. The lentiviral vectors were co-transfected with helper plasmids into 293T cells. The lentiviral vectors were transfected into 293T cells. The viral supernatant was collected 48 hours after transfection and was used to infect CRC cells. […]

CRC57 cells = assay: cecum injection model, CRC liver metastasis, CRC57 cells with ALDOB knockdown; format: in vivo, NOD/SCID mice; settings: cecum-injected CRC57 cells with ALDOB knockdown; control vectors 5 out of 5 mice
Protocol: as §1, §2

HCT116 cells = assay: cecum injection model, CRC liver metastasis, HCT116 cells with ALDOB knockdown; format: in vivo, NOD/SCID mice; settings: cecum-injected HCT116 cells with ALDOB knockdown; control vectors 5 out of 5 mice
Protocol: as §1, §2

Compound | benefit in terms of tumor suppression or survival (LV-HCT116 cells) | metastatic CRC growth in the liver (CRC cells) | mice that developed detectable liver metastases (CRC119 cells) | mice that developed detectable liver metastases (CRC57 cells) | mice that developed detectable liver metastases (HCT116 cells)
O=c1[nH]cc(F)c(=O)[nH]1 [5-Fluorouracil] | less benefit | – | – | – | –
O=C1[O][Pt]2([NH][C@@H]3CCCC[C@H]3[NH]2)[O]C1=O [Oxaliplatin] | less benefit | – | – | – | –
SEQ ID NO:4: shRNA against human fructokinase (KHK) (CCGGCCTAAGGAGGACTCGGAGATACTCGAGTATCTCCGAGTCCTCCTTAGGTTTTTG) | – | significantly suppressed | – | – | –
shRNA1: shRNA against human ALDOB, Sigma Mission lentiviral construct (CCGGCTCAGAAATTGCCCAGAGCATCTCGAGATGCTCTGGGCAATTTCTGAGTTTTTG) | – | – | 2 out of 5 mice | 2 out of 5 mice | 2 out of 5 mice
shRNA2: shRNA against human ALDOB, Sigma Mission lentiviral construct (CCGGGTGGGAATCAAGTTAGACCAACTCGAGTTGGTCTAACTTGATTCCCACTTTTTG) | – | – | 1 out of 5 mice | 2 out of 5 mice | 2 out of 5 mice
